From patent publication US7771956B2, “Method for detecting the presence of a phospholipid” (Brigham & Women's Hospital, Inc., priority 2003, dated 2010)
Entries after “also recorded” stand apart in the source; their conditions may differ.

What was measured:
platelets [1] = assay: Lactadherin binding to A23187-stimulated platelets (flow cytometry); type: cell-based; details: Platelet; 0.25 μM A23187 vs. unstimulated platelets; read-out: net increase of fluorescence (bound lactadherin)
Method: We asked whether platelets have a stimulated state when they bind lactadherin but not annexin V, consistent with the hypothesis that platelets have the capacity to regulate PS exposure at a level less than 2.5% PS (FIG. 8A-C). Platelets were incubated with fluorescein labeled lactadherin and Alexa Fluor 647 labeled annexin V. Because competition of either protein for the other's binding sites was <20% at these concentrations (FIG. 7C, 7D) we utilized both proteins simultaneously. The gain on the flow cytometer was set so that the intrinsic fluorescence of unstimulated platelets placed the population in the lower left quadrant of the display (FIG. 8A). […] Comparison with the unstimulated state indicates a net increase of fluorescence to approximately 3-fold. (FIG. 8B). The cross-hair allows comparison of modal fluorescence values for resting platelets vs. stimulated platelets.

platelets [2] = assay: Loss of NBD-PS fluorescence from stimulated platelets (PS exposure); type: cell-based; details: 10 μM A23187, 8 min
Description: In order to estimate the rate and extent of PS exposure on the platelet plasma membrane we utilized fluorescence-labeled PS (Reference 62). Prior reports indicate that platelets translocate NBD-PS to the inner leaflet of the plasma membrane, like unlabeled PS. When stimulated platelets transfer NBD-PS to the outer leaflet of the plasma membrane it is rapidly exchanged into delipidated albumin that is present in the buffer. Thus, translocation of NBD-PS to the outer plasma membrane causes a net loss in cell fluorescence. NBD-PS was loaded into membranes of resting platelets from donor vesicles prior to platelet purification. The rate and extent of platelet fluorescence loss provide an estimate of the rate and extent of plasma membrane PS exposure.
During the first minute after addition of TRAP the fluorescence loss was 12±1.8% vs. 5±2.5% for control platelets. Stimulation with 10 μM A23187 led to the same rate of fluorescence loss during the first minute but the rate was maintained so that after 8 min. >90% of NBD fluorescence was lost (FIG. 12B inset).

[3] = biological target: T1, bovine lactadherin (fluorescein-labeled, purified from bovine milk) (Bos taurus, UniProt Q95114); assay: Equilibrium binding of fluorescein-labeled lactadherin to lipospheres (membranes on glass microspheres, flow cytometry); details: for binding of lactadherin: lipospheres with 2% synthetic dioleoyl lipid, 20% PE, balance PC, FIG. 5A
T1 construct: from tissue; host or cells: bovine milk
T1 sequence (Q95114 19-427): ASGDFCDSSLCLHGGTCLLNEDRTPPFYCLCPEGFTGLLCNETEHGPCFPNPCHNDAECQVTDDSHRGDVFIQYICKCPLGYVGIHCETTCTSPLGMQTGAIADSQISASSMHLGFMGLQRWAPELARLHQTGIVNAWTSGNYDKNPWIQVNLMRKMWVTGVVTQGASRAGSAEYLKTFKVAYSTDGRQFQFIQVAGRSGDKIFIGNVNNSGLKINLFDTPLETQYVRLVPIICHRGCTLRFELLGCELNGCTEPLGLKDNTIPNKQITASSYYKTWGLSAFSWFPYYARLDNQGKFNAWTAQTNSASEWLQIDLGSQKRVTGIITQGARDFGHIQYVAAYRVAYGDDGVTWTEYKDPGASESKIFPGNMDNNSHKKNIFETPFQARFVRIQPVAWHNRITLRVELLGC
Method: (§1) Lactadherin was purified from bovine milk as previously described (Reference 1). Lactadherin, 0.2 mg in 0.2 ml phosphate-buffered saline, was concentrated 10-fold by ultrafiltration with a Centricon YM-10 (Millipore, Bedford, Mass.) followed by dilution to the starting concentration into 0.1 M sodium carbonate buffer, pH 9.0. Fluorescein isothiocyanate (Molecular Probes, Eugene, Oreg.) 6 μl of 10 mg/ml solution in DMSO, was added to lactadherin and the mixture was incubated for one hour at RT in the dark. Free fluorescein was removed by gel filtration using a micro spin column equilibrated with 0.1 M sodium carbonate, 0.1 M betaine, 0.004% Tween-80, pH 9.0 (FluoReporter FITC Protein Labeling Kit, Molecular Probes, Eugene, Oreg.). Fluorescein-labeled lactadherin was concentrated approx. 10-fold by ultrafiltration using a Centricon YM-10, and diluted to approximately the original concentration in 0.15 M NaCl, 50 mM Tris-HCl, pH 7.5. Labeling efficiency was judged by comparison of absorbance at 490 nm to absorbance at 280 nm (correcting for fluorescein absorbance at 280 nm).
Glass microspheres of 1.6 μm nominal diameter (Duke Scientific, Palo Alto, Calif.) were cleaned, size-restricted and covered with a phospholipid bilayer as previously described (Reference 17). Membranes supported by glass microspheres were washed three times in 0.15 M NaCl, 0.02 M Tris-HCl, 0.1% defatted bovine albumin, 10 μM egg PC as sonicated vesicles; stored at 4° C.; and used within 8 hours of synthesis. Fluorescein-labeled factor VIII (4 nM) was incubated with lactadherin or annexin V for 15 min at room temperature, the mixture was added to lipospheres for an additional 10 minutes, and membrane-bound fVIII was measured by flow cytometry. This procedure was performed on 150 μl aliquots with an approximate liposphere concentration of 1×10^6/ml using a Becton Dickinson FACSCalibur flow cytometer. Data acquisition was triggered by forward light scatter with all photomultipliers in the log mode. […] Mean log fluorescence was converted to linear fluorescence for values depicted in the figures. Only experiments in which the fluorescence histogram indicated a log normal distribution, as judged by inspection, were analyzed quantitatively. […]
The equilibrium binding of lactadherin to lipospheres was fitted by non-linear, least squares data analysis using the standard binding model (assuming a single class of binding sites and that the fraction of bound lactadherin was small at each concentration evaluated). […]
Fluorescein-labeled lactadherin interacted with phospholipid bilayers supported by glass microspheres (lipospheres). […] After 10 minutes, we measured bound lactadherin using flow cytometry (FIG. 1A). […]

[4] = biological target: T1, bovine lactadherin (fluorescein-labeled, purified from bovine milk); assay: Competition of soluble head group for fluorescein-lactadherin binding to lipospheres (flow cytometry); details: for inhibition of lactadherin binding: concentrations as high as 0.35 M
Method: Flow Cytometry Phospholipid Binding Assay
Glass microspheres of 1.6 μm nominal diameter (Duke Scientific, Palo Alto, Calif.) were cleaned, size-restricted and covered with a phospholipid bilayer as previously described (Reference 17). Membranes supported by glass microspheres were washed three times in 0.15 M NaCl, 0.02 M Tris-HCl, 0.1% defatted bovine albumin, 10 μM egg PC as sonicated vesicles; stored at 4° C.; and used within 8 hours of synthesis. […] This procedure was performed on 150 μl aliquots with an approximate liposphere concentration of 1×10^6/ml using a Becton Dickinson FACSCalibur flow cytometer. Data acquisition was triggered by forward light scatter with all photomultipliers in the log mode. Noise was reduced during analysis by eliminating events with forward and side scatter values different from those characteristic of the lipospheres. Mean log fluorescence was converted to linear fluorescence for values depicted in the figures. Only experiments in which the fluorescence histogram indicated a log normal distribution, as judged by inspection, were analyzed quantitatively. Flow cytometry experiments were performed in 0.14 M NaCl, 0.02 M Trizma-HCl, 0.1% bovine albumin, pH 7.5 with CaCl2 as specified for individual experiments.
Fluorescein-labeled lactadherin was incubated with 10^6 lipospheres/ml in Tris-buffered saline, 1.5 mM CaCl2, 0.1% BSA for 10 min. prior to evaluation of bound lactadherin by flow cytometry. The final concentrations of lactadherin were varied to estimate the affinity and stoichiometry of bound lactadherin.
To estimate the stereoselective affinity of lactadherin for the L-serine containing head group of Ptd-L-Ser, we performed binding inhibition studies (FIG. 5B).

[5] = biological target: T1, bovine lactadherin (fluorescein-labeled, purified from bovine milk); assay: Competition of phospholipid vesicles with lipospheres for fluorescein-labeled lactadherin; type: binding; details: for support of lactadherin binding: vesicles lacking Ptd-L-Ser, FIG. 4B; for effect on number of binding sites or affinity for lactadherin: extruded vesicles, 0-20% PE, 1% Ptd-L-Ser
Method: as §1
Phospholipid vesicles were prepared by evaporating chloroform from the desired phospholipids, resuspending in methylene chloride and re-evaporating twice under argon. Large multilamellar vesicles were prepared by gently swirling tris-buffered saline (50 mM Tris, 150 mM NaCl, pH 7.4) over the dried lipid suspension until all lipid was suspended. Some of the large multilamellar vesicles were then utilized to prepare small unilamellar vesicles by sonication in a high intensity bath sonicator (Laboratory Supplies, Inc. Hicksville, N.Y.) under argon until visually clear (approx. 20 min.). Large unilamellar vesicles were made by extruding large multilamellar vesicle suspensions 20 times through […] polycarbonate membranes (Millipore, Bedford, Mass.) in a High Pressure Extrusion Device (Sciema Technical Services, Vancouver, BC, Canada) under argon as described previously (Reference 39). Phospholipid concentration was determined by phosphorus assay (Reference 40). Vesicles were used fresh, or 1 ml aliquots were quick-frozen in liquid nitrogen, stored at −80° C., and thawed at 37° C.
Glass microspheres of 1.6 μm nominal diameter (Duke Scientific, Palo Alto, Calif.) were cleaned, size-restricted and covered with a phospholipid bilayer as previously described (Reference 17). Membranes supported by glass microspheres were washed three times in 0.15 M NaCl, 0.02 M Tris-HCl, 0.1% defatted bovine albumin, 10 μM egg PC as sonicated vesicles; stored at 4° C.; and used within 8 hours of synthesis. Fluorescein-labeled factor VIII (4 nM) was incubated with lactadherin or annexin V for 15 min at room temperature, the mixture was added to lipospheres for an additional 10 minutes, and membrane-bound fVIII was measured by flow cytometry. This procedure was performed on 150 μl aliquots with an approximate liposphere concentration of 1×10^6/ml using a Becton Dickinson FACSCalibur flow cytometer. Data acquisition was triggered by forward light scatter with all photomultipliers in the log mode. Noise was reduced during analysis by eliminating events with forward and side scatter values different from those characteristic of the lipospheres. Mean log fluorescence was converted to linear fluorescence for values depicted in the figures. Only experiments in which the fluorescence histogram indicated a log normal distribution, as judged by inspection, were analyzed quantitatively. […]

[6] = biological target: T2, Recombinant human factor VIII (Homo sapiens, UniProt P00451); assay: Binding of factor VIII to lipospheres; details: lipospheres containing 4% Ptd-L-Ser; read-out: dissociation constant of factor VIII for lipospheres
T2 construct: Gift from D. Pittman, Genetics Institute, Cambridge, Mass
T2 sequence (P00451 20-2351): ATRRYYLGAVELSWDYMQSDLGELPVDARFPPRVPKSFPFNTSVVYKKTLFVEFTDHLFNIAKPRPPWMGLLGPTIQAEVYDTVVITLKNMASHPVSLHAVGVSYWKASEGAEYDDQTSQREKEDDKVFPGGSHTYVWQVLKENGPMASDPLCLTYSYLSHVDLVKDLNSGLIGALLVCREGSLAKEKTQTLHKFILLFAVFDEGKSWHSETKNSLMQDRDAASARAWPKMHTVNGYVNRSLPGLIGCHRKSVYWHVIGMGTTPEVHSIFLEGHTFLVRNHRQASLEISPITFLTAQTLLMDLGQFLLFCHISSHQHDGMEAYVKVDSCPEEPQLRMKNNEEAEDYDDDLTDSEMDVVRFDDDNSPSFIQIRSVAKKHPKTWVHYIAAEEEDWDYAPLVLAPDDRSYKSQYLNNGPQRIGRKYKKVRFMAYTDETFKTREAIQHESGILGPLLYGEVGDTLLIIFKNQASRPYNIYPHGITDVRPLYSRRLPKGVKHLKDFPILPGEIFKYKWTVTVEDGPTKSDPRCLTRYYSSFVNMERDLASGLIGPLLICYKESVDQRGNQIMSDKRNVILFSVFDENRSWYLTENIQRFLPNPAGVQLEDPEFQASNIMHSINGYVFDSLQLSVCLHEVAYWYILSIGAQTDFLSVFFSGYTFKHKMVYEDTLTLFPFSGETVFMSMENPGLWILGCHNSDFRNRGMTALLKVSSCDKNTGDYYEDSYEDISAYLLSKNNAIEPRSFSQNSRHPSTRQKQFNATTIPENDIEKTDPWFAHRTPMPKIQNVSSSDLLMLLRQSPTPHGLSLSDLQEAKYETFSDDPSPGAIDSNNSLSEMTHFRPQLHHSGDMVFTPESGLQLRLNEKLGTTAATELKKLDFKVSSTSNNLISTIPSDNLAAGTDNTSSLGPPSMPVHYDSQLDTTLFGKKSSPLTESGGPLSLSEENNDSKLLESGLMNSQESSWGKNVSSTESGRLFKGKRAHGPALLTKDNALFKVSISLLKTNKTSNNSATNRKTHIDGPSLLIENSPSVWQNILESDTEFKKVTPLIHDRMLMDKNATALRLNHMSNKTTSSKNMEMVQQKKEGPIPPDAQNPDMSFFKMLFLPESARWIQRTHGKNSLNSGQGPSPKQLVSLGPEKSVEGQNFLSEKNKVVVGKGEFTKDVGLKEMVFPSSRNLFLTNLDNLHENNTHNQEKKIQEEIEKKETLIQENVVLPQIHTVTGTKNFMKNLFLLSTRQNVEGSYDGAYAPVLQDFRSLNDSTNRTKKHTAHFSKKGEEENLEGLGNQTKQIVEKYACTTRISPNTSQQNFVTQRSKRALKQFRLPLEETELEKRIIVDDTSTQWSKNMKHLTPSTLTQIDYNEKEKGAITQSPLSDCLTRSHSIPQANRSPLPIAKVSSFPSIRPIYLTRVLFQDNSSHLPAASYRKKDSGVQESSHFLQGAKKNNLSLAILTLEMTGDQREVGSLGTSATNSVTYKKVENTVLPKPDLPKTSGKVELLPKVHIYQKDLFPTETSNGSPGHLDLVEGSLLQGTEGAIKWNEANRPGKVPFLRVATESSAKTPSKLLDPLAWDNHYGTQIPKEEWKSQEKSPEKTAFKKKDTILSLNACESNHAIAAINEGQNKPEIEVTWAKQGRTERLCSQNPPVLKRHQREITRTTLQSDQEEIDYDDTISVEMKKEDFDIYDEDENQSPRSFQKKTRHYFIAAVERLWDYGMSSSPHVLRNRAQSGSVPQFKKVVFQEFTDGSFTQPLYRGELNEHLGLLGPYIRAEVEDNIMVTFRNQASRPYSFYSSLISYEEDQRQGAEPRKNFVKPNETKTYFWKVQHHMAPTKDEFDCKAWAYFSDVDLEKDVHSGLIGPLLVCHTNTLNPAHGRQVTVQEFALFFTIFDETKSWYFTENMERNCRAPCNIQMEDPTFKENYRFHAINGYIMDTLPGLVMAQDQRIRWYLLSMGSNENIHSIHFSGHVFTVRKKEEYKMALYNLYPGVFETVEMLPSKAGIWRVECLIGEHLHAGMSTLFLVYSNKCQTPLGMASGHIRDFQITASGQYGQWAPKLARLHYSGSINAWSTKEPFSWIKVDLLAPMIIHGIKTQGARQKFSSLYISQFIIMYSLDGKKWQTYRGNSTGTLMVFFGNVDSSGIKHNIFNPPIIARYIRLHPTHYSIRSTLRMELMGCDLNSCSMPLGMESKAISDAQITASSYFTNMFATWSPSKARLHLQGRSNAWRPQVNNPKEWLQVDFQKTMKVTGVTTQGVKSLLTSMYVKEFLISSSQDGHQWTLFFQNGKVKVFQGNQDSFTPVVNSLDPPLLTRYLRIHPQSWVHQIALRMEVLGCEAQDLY
Description: Human factor V was obtained from Haematologic Technologies Inc. (Burlington, Vt.). Recombinant human factor VIII was a gift from D. Pittman of Genetics Institute, Cambridge, Mass. Bovine brain phosphatidylserine (Ptd-L-Ser), egg yolk phosphatidylethanolamine (PE), bovine liver phosphatidylinositol, egg sphingomyelin, egg phosphatidylcholine (PC) and dioleoyl PC were obtained from Avanti Polar Lipids (Alabaster, AL). Phospholipase D from streptomyces, phospho-L-serine phospho-D-serine, L-serine and D-serine were obtained from Sigma.
Factor VIII and factor V were labeled with fluorescein maleimide (Molecular Probes, Eugene, Oreg.) as previously described (References 17 and 37). Protein concentration of factor VIII was determined using a Micro-BCA Assay (Pierce, Rockford, Ill.) using bovine albumin as a standard.
Glass microspheres of 1.6 μm nominal diameter (Duke Scientific, Palo Alto, Calif.) were cleaned, size-restricted and covered with a phospholipid bilayer as previously described (Reference 17). […] Fluorescein-labeled factor VIII (4 nM) was incubated with lactadherin or annexin V for 15 min at room temperature, the mixture was added to lipospheres for an additional 10 minutes, and membrane-bound fVIII was measured by flow cytometry. […] Mean log fluorescence was converted to linear fluorescence for values depicted in the figures. […]

Compound: CNc1ccc2oc(C[C@H]3O[C@@]4(CC[C@H]3C)O[C@H]([C@H](C)C(=O)c3ccc[nH]3)[C@H](C)C[C@H]4C)nc2c1C(=O)O [A23187]
- fold induction at 0.25 µM (platelets [1]): ~3
- NBD fluorescence lost (platelets [2]): > 90%

Compound: CCCCCCCC/C=C\CCCCCCCC(=O)OC[C@H](COP(=O)(O)OC[C@@H](N)C(=O)O)OC(=O)CCCCCCC/C=C\CCCCCCCC [dioleoyl Ptd-D-Ser]
- binding of lactadherin ([3]; listed as Ptd-D-Ser): did not support binding of lactadherin above the level supported by control membranes of PE:PC 20:80

Compound: CCCCCCCC/C=C\CCCCCCCC(=O)OC[C@H](COP(=O)(O)OC[C@H](N)C(=O)O)OC(=O)CCCCCCC/C=C\CCCCCCCC [dioleoyl Ptd-L-Ser]
- binding of lactadherin [3]: Lactadherin bound to membranes; also recorded: bound lactadherin with high affinity, comparable to Ptd-L-Ser from biologic sources

Compound: N[C@H](COP(=O)(O)O)C(=O)O [phospho-D-serine]
- inhibition of lactadherin binding [4]: ≤ 25%
- fold less effective as an inhibitor (vs. phospho-L-serine) ([4]; inhibition of lactadherin binding to lipospheres): at least 4 fold

Compound: phosphate
- inhibition of lactadherin binding [4]: ≤ 25%

Compound: phosphatidylcholine [PC]
- support of lactadherin binding [5]: supported low affinity lactadherin binding

Compound: phosphatidylethanolamine [PE]
- effect on number of binding sites or affinity for lactadherin [5]: did not influence the apparent number of binding sites or affinity for lactadherin
- effect on number of binding sites or affinity for lactadherin ([5]; listed as phosphatidylethanolamine): did not enhance the apparent affinity or number of lactadherin binding sites

Compound: phosphatidylinositol
- support of lactadherin binding [5]: does not support high affinity binding of lactadherin; also recorded: supported low affinity binding of lactadherin

Compound: phosphatidylserine [Ptd-L-Ser]
- Kd ([5]; sonicated vesicles of 16% Ptd-L-Ser, n<60, read-out: KD (lower limit)): > 0.2 nM
- Kd [6]: 4.8 nM
- apparent KD, 1% Ptd-L-Ser vs. 4% Ptd-L-Ser membranes (fold difference) ([3]; lipospheres of 1% vs. 4% Ptd-L-Ser): ≤ 2 fold
- Kd ([3]; membranes Ptd-L-Ser:PE:PC 4:20:76 on glass microspheres, 10 min, read-out: KD (apparent)): 3.3 ± 0.4 nM
